Measured values: the supplement of paper PMC13380429

Key:
Settings in all cases: 72 h
[1] = tested on: HepG2; test: cell viability relative to DMSO; higher = less toxic
[2] = tested on: Vero E6; test: as above
[3] = tested on: Calu-3; test: as above
[4] = tested on: Caco-2; test: as above
[5] = tested on: U2OS; test: as above
[6] = tested on: HepG2; test: drug sensitivity score (DSS) for viability; higher = more toxic; extreme values may be limits of the assay
[7] = tested on: Vero E6; test: as above
[8] = tested on: Calu-3; test: as above
[9] = tested on: Caco-2; test: as above
[10] = tested on: U2OS; test: as above
[11] = tested on: HepG2; test: relative viability EC50 (midpoint between 100% and the lowest measured viability); higher = less toxic
[12] = tested on: Vero E6; test: as above
[13] = tested on: Calu-3; test: as above
[14] = tested on: Caco-2; test: as above
[15] = tested on: U2OS; test: as above

Structure (SMILES) | cell viability ([1]; 1 nM) | cell viability ([1]; 10 nM) | cell viability ([1]; 100 nM) | cell viability ([1]; 1000 nM) | cell viability ([1]; 10000 nM) | cell viability ([2]; 1 nM) | cell viability ([2]; 10 nM) | cell viability ([2]; 100 nM) | cell viability ([2]; 1000 nM) | cell viability ([2]; 10000 nM) | cell viability ([3]; 1 nM) | cell viability ([3]; 10 nM) | cell viability ([3]; 100 nM) | cell viability ([3]; 1000 nM) | cell viability ([3]; 10000 nM) | cell viability ([4]; 1 nM) | cell viability ([4]; 10 nM) | cell viability ([4]; 100 nM) | cell viability ([4]; 1000 nM) | cell viability ([4]; 10000 nM) | cell viability ([5]; 1 nM) | cell viability ([5]; 10 nM) | cell viability ([5]; 100 nM) | cell viability ([5]; 1000 nM) | cell viability ([5]; 10000 nM) | drug sensitivity score [6] | drug sensitivity score [7] | drug sensitivity score [8] | drug sensitivity score [9] | drug sensitivity score [10] | relative viability EC50 [11] | relative viability EC50 [12] | relative viability EC50 [13] | relative viability EC50 [14] | relative viability EC50 [15]
Clc1ccccc1CN1CCc2sccc2C1 [ticlopidine] | 97.5% | 93% | 107% | 106% | 94.9% | 89% | 97.9% | 98% | 95.6% | 105% | 101% | 98.3% | 99.6% | 91.7% | 101% | 91.9% | 102% | 93.5% | 93.4% | 99.8% | 98.9% | 91.5% | 97.2% | 102% | 108% | 0 | 0 | 0 | 0 | 0 | > 10 µM | > 10 µM | > 10 µM | > 10 µM | > 10 µM
C=C(C)CN1CC[C@]23c4c5ccc(O)c4O[C@H]2c2[nH]c4ccccc4c2C[C@@]3(O)C1C5 [SDM25N] | 92.7% | 101% | 100% | 102% | 80.7% | 90.7% | 93.1% | 95.6% | 96.6% | 88.8% | 92.8% | 86.2% | 93.5% | 110% | 82.4% | 92.9% | 102% | 89.9% | 101% | 86.4% | 93.7% | 100% | 100% | 101% | 91.8% | 0.4 | 0 | 0.2 | 0.1 | 0 | > 10 µM | > 10 µM | > 10 µM | > 10 µM | > 10 µM
COc1ccc2[nH]c([S+]([O-])Cc3ncc(C)c(OC)c3C)nc2c1 (stereo not given) [omeprazole] | 102% | 96.6% | 99.4% | 99.5% | 97% | 98.5% | 106% | 102% | 107% | 103% | 115% | 94.3% | 103% | 104% | 113% | 104% | 92.2% | 103% | 99% | 95% | 106% | 98.4% | 101% | 104% | 98.6% | 0 | 0 | 0 | 0 | 0 | > 10 µM | > 10 µM | > 10 µM | > 10 µM | > 10 µM
C[C@@H]1CCN(C(=O)CC#N)C[C@@H]1N(C)c1ncnc2[nH]ccc12 | 111% | 94.4% | 105% | 97.7% | 108% | 98.6% | 94.8% | 97% | 98.3% | 96.1% | 96.3% | 97.5% | 106% | 112% | 110% | 102% | 103% | 94.4% | 96.9% | 104% | 101% | 103% | 101% | 103% | 96.9% | 0 | 0 | 0 | 0 | 0 | > 10 µM | > 10 µM | > 10 µM | > 10 µM | > 10 µM
CCN(CC)CCOC(=O)c1cc(Cl)c(N)cc1OC [SDZ-205-557] | 105% | 97.1% | 90.6% | 93.3% | 102% | 106% | 104% | 99% | 94.8% | 97.3% | 107% | 101% | 88% | 96.6% | 90.1% | 95.5% | 101% | 97.9% | 106% | 104% | 98.9% | 102% | 97% | 103% | 98.3% | 0 | 0 | 0 | 0 | 0 | > 10 µM | > 10 µM | > 10 µM | > 10 µM | > 10 µM
CN1CC[C@@]2(C)c3cc(O)ccc3N(C)[C@@H]12 [eseroline-(-)] | 98.2% | 103% | 110% | 109% | 83.7% | 96.3% | 97.9% | 96.1% | 94.2% | 96% | 101% | 101% | 99.1% | 112% | 84.6% | 103% | 97.9% | 105% | 89.6% | 77.5% | 106% | 105% | 99.1% | 101% | 96.4% | 0.2 | 0 | 0.1 | 1.9 | 0 | > 10 µM | > 10 µM | > 10 µM | > 10 µM | > 10 µM
CCCCc1ccc(NS(=O)(=O)c2ccc(F)cc2)cc1 | 101% | 114% | 86.6% | 99.4% | 86.5% | 101% | 101% | 99.9% | 99.1% | 96.2% | 93.2% | 87.6% | 100% | 98.5% | 102% | 94.9% | 87.2% | 98.6% | 93.3% | 88.5% | 97.4% | 96.2% | 99% | 101% | 100% | 1.6 | 0 | 0 | 0 | 0 | > 10 µM | > 10 µM | > 10 µM | > 10 µM | > 10 µM
C[C@@H]1C[C@H]2[C@@H]3C[C@H](F)C4=CC(=O)C=C[C@]4(C)[C@@]3(Cl)[C@@H](O)C[C@]2(C)[C@H]1C(=O)COC(=O)C(C)(C)C [clocortolone-pivalate] | 98.8% | 93.6% | 99.1% | 103% | 108% | 101% | 90.6% | 99.6% | 95.4% | 110% | 92.9% | 88.2% | 102% | 96.2% | 97.3% | 90.6% | 99.2% | 91% | 100% | 112% | 95.7% | 93% | 90.1% | 90.7% | 93.4% | 0 | 0 | 0 | 0 | 0 | > 10 µM | > 10 µM | > 10 µM | > 10 µM | > 10 µM
O=C(N[C@@H](Cc1c[nH]c2ccccc12)C(=O)O)c1ccc(Cl)cc1 [benzotript] | 99.7% | 98.1% | 102% | 103% | 108% | 104% | 99.3% | 98.1% | 102% | 107% | 87.8% | 99.4% | 98% | 100% | 108% | 99.9% | 102% | 101% | 100% | 99.4% | 96% | 99.5% | 94.3% | 101% | 95.9% | 0 | 0 | 0 | 0 | 0 | > 10 µM | > 10 µM | > 10 µM | > 10 µM | > 10 µM
COc1ccccc1OCC(O)CN1CCN(CC(=O)Nc2c(C)cccc2C)CC1 (stereo not given) [ranolazine] | 97.5% | 97.9% | 93% | 96.7% | 102% | 90.5% | 97.3% | 89.5% | 90.7% | 104% | 95% | 91.8% | 102% | 105% | 105% | 100% | 96.9% | 106% | 99.2% | 99.1% | 98.6% | 93.4% | 102% | 96.1% | 102% | 0 | 0 | 0 | 0 | 0 | > 10 µM | > 10 µM | > 10 µM | > 10 µM | > 10 µM
C[N+](C)(C)CC(O)CC(=O)[O-] (stereo not given) [carnitine-(D/L)] | 98.1% | 82.5% | 92.1% | 86.3% | 80.9% | 100% | 101% | 91% | 106% | 104% | 96.9% | 102% | 109% | 99.9% | 94.3% | 105% | 77.6% | 100% | 81.8% | 89.7% | 94.1% | 94.4% | 87.2% | 80.6% | 95.9% | 2.2 | 0 | 0 | 0.7 | 0 | > 10 µM | > 10 µM | > 10 µM | > 10 µM | > 10 µM
CC(C)(C)C(=O)NCCCC(=O)O [pivagabine] | 99% | 111% | 98.5% | 106% | 108% | 95.1% | 99.2% | 96.4% | 98.3% | 91.7% | 101% | 110% | 98.3% | 99.1% | 106% | 92.3% | 97.2% | 88.8% | 95.9% | 92.2% | 101% | 105% | 98.4% | 101% | 102% | 0 | 0 | 0 | 0 | 0 | > 10 µM | > 10 µM | > 10 µM | > 10 µM | > 10 µM
CS(=O)(=O)Nc1ccc(Cc2noc(-c3ccc4[nH]cc(CCN)c4c3)n2)cc1 | 93.8% | 116% | 91.2% | 95.8% | 98% | 98.3% | 105% | 100% | 101% | 106% | 104% | 101% | 102% | 90.2% | 103% | 97.9% | 101% | 105% | 98.5% | 104% | 98.6% | 96.9% | 102% | 99.1% | 98.8% | 0 | 0 | 0 | 0 | 0 | > 10 µM | > 10 µM | > 10 µM | > 10 µM | > 10 µM
Cc1ccc2c(=O)c3ccccc3n(CCCN)c2c1C | 99.3% | 94.2% | 102% | 38.2% | 5.4% | 96.2% | 99.9% | 91.7% | 57% | 3.7% | 97.8% | 102% | 104% | 81.3% | 20.6% | 100% | 92.8% | 91.6% | 72.7% | 28.5% | 100% | 102% | 96.9% | 103% | 1.3% | 12.4 | 10.3 | 7.3 | 7 | 5.3 | 0.777 µM | 1.12 µM | 1.6 µM | 1.32 µM | 3.33 µM
